Tests used:
[1] = target: T1, 45 kDa Arg-specific proteinase (Porphyromonas gingivalis, UniProt P28784); assay: biochemical; format: biochemical, P. gingivalis W50; conditions: for activity at 1000 µM / activity at 10000 µM / activity at 100 µM: read-out: Activity (%) of the 45 kDa Arg-specific proteinase
T1 construct: made in house; host or cells: native protein purified from sonicate of P. gingivalis W50 cells (Q-sepharose, Superose 12, Arg-sepharose 200 mM arginine eluant, Mono Q)

[2] = target: 48 kDa Lys-specific proteinase (PrtK48) (Porphyromonas gingivalis, UniProt Q51817); format: biochemical, P. gingivalis W50
Chain of 48 kDa Lys-specific proteinase (PrtK48) (Q51817 229-680 limits assumed): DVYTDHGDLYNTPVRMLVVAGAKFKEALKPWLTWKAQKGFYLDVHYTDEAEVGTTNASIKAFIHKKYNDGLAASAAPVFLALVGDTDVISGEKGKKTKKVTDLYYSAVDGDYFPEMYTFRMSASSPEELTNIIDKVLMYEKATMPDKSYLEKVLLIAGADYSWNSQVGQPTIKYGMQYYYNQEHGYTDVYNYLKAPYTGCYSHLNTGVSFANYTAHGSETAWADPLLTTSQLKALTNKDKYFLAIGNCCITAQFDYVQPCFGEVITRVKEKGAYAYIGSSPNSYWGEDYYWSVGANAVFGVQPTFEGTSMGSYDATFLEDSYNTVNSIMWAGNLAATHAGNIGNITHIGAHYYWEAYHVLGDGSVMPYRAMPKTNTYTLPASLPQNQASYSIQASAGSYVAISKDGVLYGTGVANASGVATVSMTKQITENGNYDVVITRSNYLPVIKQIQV

[3] = target: PrtR45, 45 kDa Arg-specific proteinase (Porphyromonas gingivalis W50); assay: cell-based or functional assay
Chain of PrtR45, 45 kDa Arg-specific proteinase (Porphyromonas gingivalis W50) (B2RM93 225-247): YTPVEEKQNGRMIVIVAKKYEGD

[4] = compound 1.0 mM, incubation also contained 1.0 mM 2-mercaptoethanol
[5] = compound 10.0 mM, incubation also contained 1.0 mM 2-mercaptoethanol

T1 sequence (P28784 228-719): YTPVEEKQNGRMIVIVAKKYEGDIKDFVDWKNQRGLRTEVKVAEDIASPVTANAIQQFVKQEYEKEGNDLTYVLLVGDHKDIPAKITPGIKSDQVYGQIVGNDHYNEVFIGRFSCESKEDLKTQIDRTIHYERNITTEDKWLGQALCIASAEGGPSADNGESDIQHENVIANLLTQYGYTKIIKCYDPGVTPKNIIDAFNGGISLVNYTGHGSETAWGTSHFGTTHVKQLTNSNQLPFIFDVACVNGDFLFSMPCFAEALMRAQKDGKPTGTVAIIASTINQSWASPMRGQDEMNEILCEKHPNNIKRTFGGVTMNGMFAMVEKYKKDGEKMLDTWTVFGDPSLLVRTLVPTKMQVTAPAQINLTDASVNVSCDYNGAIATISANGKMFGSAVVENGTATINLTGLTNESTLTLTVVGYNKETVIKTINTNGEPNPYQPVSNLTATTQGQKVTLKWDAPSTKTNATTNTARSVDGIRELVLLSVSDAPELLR

Compound: O[C@H](CS)[C@H](O)CS (racemic) [Dithiothreitol]
- activity at 1000 µM [1]: 109%
- activity at 10000 µM [1]: 174%

Compound: OCCS [2-mercaptoethanol]
- Activity (%) of the 45 kDa Arg-specific proteinase ([1]; compound 1.0 mM): 100%
- Activity (%) of the 45 kDa Arg-specific proteinase ([1]; compound 10.0 mM): 158%
- Activity (%) of the 45 kDa Arg-specific proteinase ([1]; compound 50.0 mM): 189%

Compound: NCCc1ccc(S(=O)(=O)F)cc1 [AEBSF, [4-(2-aminoethyl)-benzenesulfonylfluoride]]
- Effect on the Arg-specific 45 kDa enzyme (in words) [1]: not inhibited
- Activity (%) of the 45 kDa Arg-specific proteinase [1, 4]: 93%
- Activity (%) of the 45 kDa Arg-specific proteinase [1, 5]: 80%

Compound: O=C(O)CN(CCN(CC(=O)O)CC(=O)O)CC(=O)O [EDTA]
- Effect on the Lys-specific enzyme (in words) [2]: not inhibited
- Effect on the Arg-specific 45 kDa enzyme (in words) [1]: inhibited
- Activity (%) of the 45 kDa Arg-specific proteinase ([1]; EDTA +Ca2+ 50.0 mM, incubation also contained 1.0 mM 2-mercaptoethanol): 97%
- Activity (%) of the 45 kDa Arg-specific proteinase [1, 4]: 100%
- Activity (%) of the 45 kDa Arg-specific proteinase [1, 5]: 4%
- Activity (%) of the 45 kDa Arg-specific proteinase ([1]; compound 50.0 mM, incubation also contained 1.0 mM 2-mercaptoethanol): 0%

Compound: O=C(O)CI [Iodoacetic acid]
- activity at 1000 µM [1]: 82%
- activity at 10000 µM [1]: 19%

Compound: N[C@@H](CS)C(=O)O [L-cysteine]
- Effect on the Arg-specific 45 kDa enzyme (in words) [1]: activated
- activity at 100 µM [1]: 183%
- activity at 1000 µM [1]: 320%
- activity at 10000 µM [1]: 487%

Compound: CC(=O)N[C@@H](CC(C)C)C(=O)N[C@@H](CC(C)C)C(=O)N[C@H](C=O)CCCNC(=N)N [Leupeptin]
- Effect on the Lys-specific enzyme (in words) [2]: not inhibited
- Effect on the Arg-specific 45 kDa enzyme (in words) [1]: inhibited
- activity at 100 µM [1]: 0%

Compound: O=C(O)c1cc[c]([Hg][Cl])cc1 [PCMB, p-chloromercuribenzoic acid]
- Activity (%) of the 45 kDa Arg-specific proteinase [1, 4]: 100%
- Activity (%) of the 45 kDa Arg-specific proteinase [1, 5]: 14%

Compound: O=S(=O)(F)Cc1ccccc1 [PMSF, phenylmethyl sulfonyl fluoride]
- Effect on the Arg-specific 45 kDa enzyme (in words) [1]: not inhibited
- Activity (%) of the 45 kDa Arg-specific proteinase [1, 5]: 90%

Compound: c1cnc2c(c1)ccc1cccnc12 [o-phenanthroline]
- Activity (%) of the 45 kDa Arg-specific proteinase [1, 5]: 100%

Compound: Leupeptin (peptide)
- Activity (%) (amidolytic activity, leupeptin at 0.1 mM) [3]: 0%

Reference: US6511666B1, “Diagnostics and treatments of periodontal disease” (priority 1995, dated 2003)
